Columns and labels:
Test in all cases: GRmax, 72 h; higher = less effect;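 also: breast cell lines in 384-well plates, nine doses across a 10^4 range, Dye Drop imaging of viable cells vs DMSO and time-zero plates, GR 0 means no net growth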
[1] = tested on: AU565
[2] = tested on: BT474
[3] = tested on: CAL51
[4] = tested on: EFM19
[5] = tested on: HCC1187
[6] = tested on: MCF12A
[7] = tested on: MDAMB175VII
[8] = tested on: MDAMB231
[9] = tested on: MDAMB361
[10] = tested on: MGH312
[11] = tested on: PDX1328
[12] = tested on: SUM185PE
[13] = tested on: SUM52PE
[14] = tested on: T47D
[15] = tested on: ZR7530

| Structure (SMILES) | GRmax, 72 h [1] | GRmax, 72 h [2] | GRmax, 72 h [3] | GRmax, 72 h [4] | GRmax, 72 h [5] | GRmax, 72 h [6] | GRmax, 72 h [7] | GRmax, 72 h [8] | GRmax, 72 h [9] | GRmax, 72 h [10] | GRmax, 72 h [11] | GRmax, 72 h [12] | GRmax, 72 h [13] | GRmax, 72 h [14] | GRmax, 72 h [15] |
| --- | --- | --- | --- | --- | --- | --- | --- | --- | --- | --- | --- | --- | --- | --- | --- |
| COc1cccc(OCCCN)c1-c1cc(Nc2cnc(C#N)cn2)n[nH]1 | 0.0394 GR | 0.715 GR | 0.0443 GR | 0.929 GR | -0.498 GR | -0.167 GR | 0.0945 GR | -0.172 GR | -0.386 GR | 0.887 GR | 0.111 GR | 0.559 GR | -0.292 GR | 0.428 GR | 0.561 GR |
| Cc1nc(NC(=O)N2CCC[C@H]2C(N)=O)sc1-c1ccnc(C(C)(C)C(F)(F)F)c1 [Alpelisib/BYL719] (max 10 µM) | -0.472 GR | -0.809 GR | 0.344 GR | -0.151 GR | 0.608 GR | 0.825 GR | -0.697 GR | 0.69 GR | -0.799 GR | 0.104 GR | 0.203 GR | 0.15 GR | 0.0427 GR | -0.0332 GR | -0.0068 GR |
| CC(=O)c1c(C)c2cnc(Nc3ccc(N4CCN(CCOCCOCCOCCNC(=O)COc5cccc6c5C(=O)N(C5CCC(=O)NC5=O)C6=O)CC4)cn3)nc2n(C2CCCC2)c1=O (stereo not given) [BSJ-03-123] (max 10 µM) | -0.386 GR | -0.0209 GR | 0.146 GR | 0.156 GR | -0.518 GR | 0.129 GR | 0.0607 GR | -0.181 GR | -0.0849 GR | -0.894 GR | 0.28 GR | 0.665 GR | 0.227 GR | 0.0948 GR | -0.258 GR |
| CC(=O)c1c(C)c2cnc(Nc3ccc(N4CCNCC4)cn3)nc2n(C2CCCC2)c1=O (max 3.162 µM) | 0.177 GR | 0.519 GR | 0.361 GR | 0.308 GR | 0.646 GR | 0.684 GR | -0.0887 GR | 0.206 GR | 0.148 GR | 1.03 GR | 0.361 GR | 0.852 GR | 0.346 GR | 0.117 GR | 0.266 GR |
| CS(=O)(=O)N1CCN(Cc2cc3nc(-c4cccc5[nH]ncc45)nc(N4CCOCC4)c3s2)CC1 [Pictilisib/GDC0941] (max 10 µM) | -0.405 GR | -0.828 GR | 0.0266 GR | -0.154 GR | -0.293 GR | 0.331 GR | -0.903 GR | 0.305 GR | -0.938 GR | -0.923 GR | -0.167 GR | 0.0142 GR | -0.205 GR | -0.147 GR | -0.342 GR |
| Cc1cc(Nc2ncc(Cl)c(Nc3ccccc3S(=O)(=O)C(C)C)n2)c(OC(C)C)cc1C1CCNCC1 [Ceritinib/LDK378] (max 10 µM) | 0.498 GR | 1.18 GR | -0.476 GR | -0.258 GR | 0.121 GR | 0.172 GR | 0.261 GR | -0.333 GR | -0.991 GR | -0.156 GR | -0.943 GR | 0.412 GR | 0.559 GR | -0.855 GR | 0.416 GR |
| CC(=O)Nc1cccc(-n2c(=O)n(C3CC3)c(=O)c3c(Nc4ccc(I)cc4F)n(C)c(=O)c(C)c32)c1 (max 1 µM) | 1.01 GR | 1.36 GR | 0.706 GR | 0.952 GR | 0.76 GR | -0.0287 GR | -0.698 GR | -0.178 GR | 0.502 GR | 1.12 GR | 0.661 GR | 0.904 GR | 0.577 GR | 0.58 GR | 0.405 GR |
| CC[C@@]1(O)C(=O)OCc2c1cc1n(c2=O)Cc2cc3c(CN(C)C)c(O)ccc3nc2-1 [Topotecan] (max 10 µM) | – | – | -0.53 GR | – | – | – | – | -0.324 GR | -0.762 GR | – | -0.913 GR | – | – | -0.197 GR | – |
| CCNC(=O)c1noc(-c2cc(C(C)C)c(O)cc2O)c1-c1ccc(CN2CCOCC2)cc1 [Luminespib/NVP-AUY922] (max 1 µM) | -0.231 GR | -0.505 GR | -0.339 GR | 0.0263 GR | -0.476 GR | -0.316 GR | -0.455 GR | -0.178 GR | -0.885 GR | -0.685 GR | -0.253 GR | -0.103 GR | -0.0956 GR | 0.0212 GR | 0.1 GR |
| COc1cc2nccc(Oc3ccc(NC(=O)C4(C(=O)Nc5ccc(F)cc5)CC4)cc3)c2cc1OC [Cabozantinib] (max 10 µM) | 0.312 GR | 0.647 GR | 0.306 GR | 0.668 GR | 0.222 GR | 0.96 GR | 0.0863 GR | 0.0749 GR | 0.662 GR | 0.332 GR | 0.251 GR | 0.0169 GR | 0.0751 GR | 0.313 GR | 0.449 GR |
| NC(=O)Nc1cc(-c2cccc(F)c2)sc1C(=O)N[C@H]1CCCNC1 [AZD7762] (max 10 µM) | -0.597 GR | 0.0014 GR | -0.519 GR | -0.149 GR | -0.691 GR | -0.211 GR | -0.811 GR | -0.463 GR | -0.675 GR | -0.515 GR | -0.578 GR | 0.115 GR | -0.322 GR | -0.0573 GR | 0.0949 GR |
| CN(C)C(=O)c1cc2cnc(Nc3ccc(N4CCNCC4)cn3)nc2n1C1CCCC1 [LEE011/Ribociclib] (max 10 µM) | 0.244 GR | 0.583 GR | 0.385 GR | 0.386 GR | 0.56 GR | 0.789 GR | 0.159 GR | 0.204 GR | 0.0436 GR | 0.894 GR | 0.265 GR | 0.824 GR | 0.528 GR | 0.15 GR | 0.41 GR |
| COc1cccc2c1C(=O)c1c(O)c3c(c(O)c1C2=O)C[C@@](O)(C(=O)CO)C[C@@H]3O[C@H]1C[C@H](N)[C@H](O)[C@H](C)O1 [Doxorubicin] (max 3.162 µM) | -0.452 GR | -0.605 GR | -0.48 GR | -0.18 GR | -0.83 GR | -0.138 GR | -0.595 GR | -0.486 GR | -0.722 GR | -0.963 GR | -0.739 GR | 0.744 GR | -0.0432 GR | -0.361 GR | -0.274 GR |
| CCc1cnn2c(NCc3ccc[n+]([O-])c3)cc(N3CCCC[C@H]3CCO)nc12 (max 1 µM) | -0.752 GR | -0.762 GR | -0.358 GR | -0.532 GR | -0.791 GR | -0.327 GR | -0.493 GR | -0.42 GR | -0.275 GR | -0.951 GR | -0.577 GR | 0.18 GR | -0.33 GR | -0.211 GR | -0.714 GR |
